Results reported in ChEMBL document CHEMBL1145665, “Tunicamycins, streptovirudins, and corynetoxins, a special subclass of nucleoside antibiotics” (J Nat Prod, 1983).

Legend:
[1] = species: Sus scrofa; assay: Inhibition of pig aortic GlcNAc-1P-transferase-mediated […] formation at 50 to 100 ug/ml
[2] = species: Sus scrofa; assay: Inhibition of pig aortic GlcNAc-1P-transferase-mediated […] formation at 0.5 to 1.5 ug/ml

| inhibition [1] [%] | inhibition [2] [%] | SMILES |
| --- | --- | --- |
| 50 | – | CCC(C)CCCCCCCC/C=C/C(=O)N[C@H]1[C@H](O[C@H]2O[C@H](CO)[C@@H](O)[C@H](O)[C@H]2NC(C)=O)O[C@H](C[C@H](O)[C@H]2O[C@@H](N3CCC(=O)NC3=O)[C@H](O)[C@@H]2O)[C@H](O)[C@@H]1O (stereo not given in full) |
| – | 50 | CCC(C)CCCCCC/C=C/C(=O)N[C@H]1[C@H](O[C@H]2O[C@H](CO)[C@@H](O)[C@H](O)[C@H]2NC(C)=O)O[C@H](C[C@H](O)[C@H]2O[C@@H](n3ccc(=O)[nH]c3=O)[C@H](O)[C@@H]2O)[C@H](O)[C@@H]1O (stereo not given in full) |
| – | 50 | CC(=O)N[C@H]1[C@@H](O[C@@H]2O[C@H](C[C@H](O)[C@H]3O[C@@H](n4ccc(=O)[nH]c4=O)[C@H](O)[C@@H]3O)[C@H](O)[C@H](O)[C@H]2NC(=O)/C=C/CCCCCCCC(C)C)O[C@H](CO)[C@@H](O)[C@@H]1O |
| 50 | – | CCC(C)CCCCCC/C=C/C(=O)N[C@H]1[C@H](O[C@H]2O[C@H](CO)[C@@H](O)[C@H](O)[C@H]2NC(C)=O)O[C@H](C[C@H](O)[C@H]2O[C@@H](N3CCC(=O)NC3=O)[C@H](O)[C@@H]2O)[C@H](O)[C@@H]1O (stereo not given in full) |
| – | 50 | CCC(C)CCCCCCCC/C=C/C(=O)N[C@H]1[C@H](O[C@H]2O[C@H](CO)[C@@H](O)[C@H](O)[C@H]2NC(C)=O)O[C@H](C[C@H](O)[C@H]2O[C@@H](n3ccc(=O)[nH]c3=O)[C@H](O)[C@@H]2O)[C@H](O)[C@@H]1O (stereo not given in full) |
| – | 50 | CC(=O)N[C@H]1[C@@H](O[C@@H]2O[C@H](C[C@H](O)[C@H]3O[C@@H](n4ccc(=O)[nH]c4=O)[C@H](O)[C@@H]3O)[C@H](O)[C@H](O)[C@H]2NC(=O)/C=C/CCCCCCC(C)C)O[C@H](CO)[C@@H](O)[C@@H]1O |
| 50 | – | CC(=O)N[C@H]1[C@@H](O[C@@H]2O[C@H](C[C@H](O)[C@H]3O[C@@H](N4CCC(=O)NC4=O)[C@H](O)[C@@H]3O)[C@H](O)[C@H](O)[C@H]2NC(=O)/C=C/CCCCCCC(C)C)O[C@H](CO)[C@@H](O)[C@@H]1O |
| 50 | – | CC(=O)N[C@H]1[C@@H](O[C@@H]2O[C@H](C[C@H](O)[C@H]3O[C@@H](N4CCC(=O)NC4=O)[C@H](O)[C@@H]3O)[C@H](O)[C@H](O)[C@H]2NC(=O)/C=C/CCCCCCCC(C)C)O[C@H](CO)[C@@H](O)[C@@H]1O |
| 50 | – | CC(=O)N[C@H]1[C@@H](O[C@@H]2O[C@H](C[C@H](O)[C@H]3O[C@@H](N4CCC(=O)NC4=O)[C@H](O)[C@@H]3O)[C@H](O)[C@H](O)[C@H]2NC(=O)/C=C/CCCCCCCCC(C)C)O[C@H](CO)[C@@H](O)[C@@H]1O |

| SMILES | inhibition [1] [%] | inhibition [2] [%] |
| --- | --- | --- |
| CC(=O)N[C@H]1[C@@H](O[C@@H]2O[C@H](C[C@H](O)[C@H]3O[C@@H](n4ccc(=O)[nH]c4=O)[C@H](O)[C@@H]3O)[C@H](O)[C@H](O)[C@H]2NC(=O)/C=C/CCCCCCCCC(C)C)O[C@H](CO)[C@@H](O)[C@@H]1O | – | 50 |
